Results as given in patent publication US20200170975A1 (Strongbridge Dublin Limited, priority 2018, published 2020).

Target: T1, BCRP (Homo sapiens, UniProt Q9UNQ0)
T1 sequence (Q9UNQ0 1-655): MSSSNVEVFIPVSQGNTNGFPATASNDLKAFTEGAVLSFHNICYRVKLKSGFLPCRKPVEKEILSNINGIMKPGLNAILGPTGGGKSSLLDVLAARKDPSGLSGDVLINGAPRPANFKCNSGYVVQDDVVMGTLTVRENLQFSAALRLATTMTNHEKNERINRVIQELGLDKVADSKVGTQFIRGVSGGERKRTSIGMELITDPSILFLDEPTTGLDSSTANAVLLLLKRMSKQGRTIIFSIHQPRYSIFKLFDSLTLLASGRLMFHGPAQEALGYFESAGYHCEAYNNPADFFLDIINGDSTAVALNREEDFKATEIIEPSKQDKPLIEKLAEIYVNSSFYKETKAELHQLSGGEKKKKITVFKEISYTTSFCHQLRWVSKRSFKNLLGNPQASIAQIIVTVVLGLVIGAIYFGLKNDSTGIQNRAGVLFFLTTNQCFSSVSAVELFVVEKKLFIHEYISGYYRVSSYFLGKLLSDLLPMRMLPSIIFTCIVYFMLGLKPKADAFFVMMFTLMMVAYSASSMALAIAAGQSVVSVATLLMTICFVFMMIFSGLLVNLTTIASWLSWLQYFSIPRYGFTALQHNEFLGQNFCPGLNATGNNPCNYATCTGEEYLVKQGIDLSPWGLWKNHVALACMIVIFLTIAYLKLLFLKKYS
Assay: BCRP inhibition: bidirectional transport of prazosin across MDCKII-BCRP and control MDCKII cells
Conditions: for Recovery (%) A:B / Recovery (%) B:A / % control: 120 min
Source text: MDCKII P-gp, MDCKII BCRP and control MDCKII cells were purchased from the Netherlands Cancer Institute.

`NS(=O)(=O)c1cc(Cl)c(Cl)c(S(N)(=O)=O)c1` [Dichlorphenamide, 4,5-dichloro-1,3-benzenedisulfonamide] was tested, and the IC50 was greater than 1 mM, the “Recovery (%) A:B” value (dog, MDCK, 1000 μM) was 84.7% and the “Recovery (%) B:A” value (dog, MDCK, 1000 μM) was 77.0%. For the same molecule, the “% control” value (human, 3 μM) was 124%, the “% control” value (human, 10 μM) was 91.4% and the “% control” value (human, 30 μM) was 83.3%. For the same molecule, the “% control” value (human, 100 μM) was 91.2%, the “% control” value (human, 300 μM) was 91.9% and the “% control” value (human, 1000 μM) was 60.0%. The “Recovery (%) A:B” value (human, 1000 μM) was 93.0% and the “Recovery (%) B:A” value (human, 1000 μM) was 83.7%.
